Measurements taken from patent publication US10072025B2, “Ethyl N-boc piperidinyl pyrazolo pyridones as Janus kinase inhibitors” (Merck Sharp & Dohme Corp., priority 2014, dated 2018).
Read-outs that look alike come from different tables or passages of the source.

Legend:
JAK2 = JAK2 (Homo sapiens (Human), UniProt O60674); test: Jak Biochemical HTRF Assay (JAK2); settings: recombinant purified GST-tagged catalytic domain, [ATP] 8.5 μM, [E] 0.052 nM
Experimental: (§1) Jak Biochemical HTRF Assay Protocol
(§2) The ability of compounds to inhibit the activity of JAK1, JAK2, JAK3, and Tyk2 was measured using a recombinant purified GST-tagged catalytic domain for each enzyme (Invitrogen JAK1 #M4290, JAK2 #M4290, JAK3 #M4290, Tyk2 #M4290) in an HTRF format biochemical assay. […] The basic assay protocol is as follows: First, 250 nL of diluted compounds in DMSO were dispensed into the wells of a dry 384-well Black plate (Greiner #781076) using a Labcyte Echo 555 acoustic dispenser. Subsequent reagent additions employed an Agilent Bravo. Next, 18 μL of 1.11× enzyme and 1.11× substrate in 1× assay buffer (Invitrogen kinase buffer # PV3189, 2 mM DTT, 0.05% BSA) were added to the wells and shaken and then preincubated for 30 minutes at room temperature to allow compound binding to equilibrate. After equilibration, 2 μL of 10×ATP in 1× assay buffer was added to initiate the kinase reaction and the plates were shaken and then incubated at room temperature for 120 minutes. At the end of the incubation, 20 μL of 2× stop buffer (streptavidin-Dylight 650 (Thermo #84547B/100 mL), Eu-tagged pY20 antibody (Perkin Elmer #AD0067), EDTA, HEPES, and Triton) was added to quench the reaction. Plates were shaken and centrifuged and then incubated 60 minutes at room temperature and then read on a Perkin Elmer Envision (Xex=337 nm, λem=665 and 615 nm, TRF delay time=20 μs). HTRF signal=10,000*665 nm reading/615 nm reading. After normalization to untreated controls, the percent inhibition of the HTRF signal at each compound concentration was calculated. The plot of percent inhibition versus the log of compound concentration was fit with a 4-parameter dose response equation to calculate IC50 values.

JAK1 = JAK1 (Homo sapiens (Human), UniProt P23458); test: Jak Biochemical HTRF Assay (JAK1)
Sequence of JAK1 (P23458 875-1153): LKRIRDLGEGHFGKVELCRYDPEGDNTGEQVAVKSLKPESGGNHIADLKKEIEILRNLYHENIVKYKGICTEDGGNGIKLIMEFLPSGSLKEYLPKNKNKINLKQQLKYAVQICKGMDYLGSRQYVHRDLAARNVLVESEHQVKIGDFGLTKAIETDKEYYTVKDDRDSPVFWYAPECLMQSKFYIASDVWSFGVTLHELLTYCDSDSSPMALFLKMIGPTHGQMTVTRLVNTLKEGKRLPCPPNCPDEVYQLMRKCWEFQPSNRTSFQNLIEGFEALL
Experimental: as §1, §2

[1] = recombinant purified GST-tagged catalytic domain, HTRF, [ATP] 31.8 μM, [E] 1.405 nM

Sequence of JAK2 (O60674 849-1124): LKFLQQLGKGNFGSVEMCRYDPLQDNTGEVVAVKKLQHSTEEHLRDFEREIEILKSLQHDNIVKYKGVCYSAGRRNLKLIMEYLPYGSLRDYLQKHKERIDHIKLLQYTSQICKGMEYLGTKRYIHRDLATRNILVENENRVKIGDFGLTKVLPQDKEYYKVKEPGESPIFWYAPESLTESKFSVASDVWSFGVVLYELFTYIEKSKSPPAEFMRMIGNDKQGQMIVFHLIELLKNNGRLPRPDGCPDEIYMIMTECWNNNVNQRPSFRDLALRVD

Compound | IC50 (JAK2) | IC50 (JAK1; [1]) | IC50 (JAK1)
CCC1(n2nc(Nc3ccc(C(=O)N4CCO[C@@H](C)C4)c(C)c3)c3c(=O)[nH]ccc32)CCN(C(=O)OC(C)(C)C)CC1 [Example 2-8, (5)-tert-butyl-4-ethyl-4-(3-(3-methyl-4-(2-methylmorpholine-4-carbonyl)phenylamino)-4-oxo-4,5-dihydropyrazolo[4,3-c]pyridin-1-yl) piperidine-1-carboxylate] | 0.57 nM | 0.62 nM | –
CCC1(n2nc(Nc3ccc(C(=O)N4CCOCC4)c(C)c3)c3c(=O)[nH]ccc32)CCN(C(=O)OC(C)(C)C)CC1 [Example 2-9, tert-butyl 4-ethyl-4-(3-((3-methyl-4-(morpholine-4-carbonyl)phenyl)amino)-4-oxo-4,5-dihydro-1H-pyrazolo[4,3-c]pyridin-1-yl) piperidine-1-carboxylate] | 0.47 nM | 0.37 nM | –
CCC1(n2nc(Nc3ccc(C(=O)N4C5CCC4COC5)c(C)c3)c3c(=O)[nH]ccc32)CCN(C(=O)OC(C)(C)C)CC1 [Example 2-13, tert-butyl 4-(3-((4-(3-oxa-8-azabicyclo [3.2.1]octane-8-carbonyl)-3-methylphenyl)amino)-4-oxo-4,5-dihydro-1H-pyrazolo[4,3-c]pyridin-1-yl)-4-ethylpiperidine-1-carboxylate] | 0.54 nM | – | 0.52 nM
CCC1(n2nc(Nc3ccc(C(=O)N4CC5(COC5)C4)c(C)c3)c3c(=O)[nH]ccc32)CCN(C(=O)OC(C)(C)C)CC1 [Example 2-14, tert-butyl 4-ethyl-4-(3-((3-methyl-4-(2-oxa-6-azaspiro[3.3]heptane-6-carbonyl)phenyl)amino)-4-oxo-4,5-dihydro-1H-pyrazolo [4,3-c]pyridin-1-yl) piperidine-1-carboxylate] | 0.43 nM | 0.3 nM | –
CCC1(n2nc(Nc3ccc(C(=O)N4C[C@H]5C[C@@H]4CO5)c(C)c3)c3c(=O)[nH]ccc32)CCN(C(=O)OC(C)(C)C)CC1 [Example 2-15, tert-butyl 4-(3-((4-((1R,4R)-2-oxa-5-azabicyclo[2.2.1]heptane-5-carbonyl)-3-methylphenyl)amino)-4-oxo-4,5-dihydro-1H-pyrazolo[4,3-c]pyridin-1-yl)-4-ethylpiperidine-1-carboxylate] | 0.43 nM | 0.4 nM | –
CCC1(n2nc(Nc3cccc(CC#N)c3)c3c(=O)[nH]ccc32)CCN(C(=O)OC(C)(C)C)CC1 [Example 2-17, tert-butyl 4-(3-((3-(cyanomethyl)phenyl)amino)-4-oxo-4,5-dihydro-1H-pyrazolo [4,3-c]pyridin-1-yl)-4-ethylpiperidine-1-carboxylate] | 3.37 nM | 0.53 nM | –
CCC1(n2nc(Nc3ccc(C(=O)N4C[C@@H]5C[C@H]4CO5)c(C)c3)c3c(=O)[nH]ccc32)CCN(C(=O)OC(C)(C)C)CC1 [Example 2-22, tert-butyl 4-(3-(4-((1S,4S)-5-oxa-2-aza-bicyclo[2.2.1]heptane-2-carbonyl)-3-methylphenylamino)-4-oxo-4,5-dihydropyrazolo[4,3-c]pyridin-1-yl)-4-ethylpiperidine-1-carboxylate] | 0.44 nM | 0.36 nM | –
CCc1cc(Nc2nn(C3(CC)CCN(C(=O)OC(C)(C)C)CC3)c3cc[nH]c(=O)c23)ccc1C(=O)N1CCOCC1 [Example 2-24, tert-butyl 4-ethyl-4-(3-((3-ethyl-4-(morpholine-4-carbonyl)phenyl)amino)-4-oxo-4,5-dihydro-1H-pyrazolo[4,3-c]pyridin-1-yl) piperidine-1-carboxylate] | 0.84 nM | 0.47 nM | –
CCC1(n2nc(Nc3ccc(C(=O)N4CCSCC4)c(C(F)F)c3)c3c(=O)[nH]ccc32)CCN(C(=O)OC(C)(C)C)CC1 [Example 2-25, tert-butyl 4-(3-(3-(difluoromethyl)-4-(thiomorpholine-4-carbonyl)phenylamino)-4-oxo-4,5-dihydropyrazolo[4,3-c]pyridin-1-yl)-4-ethylpiperidine-1-carboxylate] | 2.8 nM | 1.73 nM | –
CCc1cc(Nc2nn(C3(CC)CCN(C(=O)OC(C)(C)C)CC3)c3cc[nH]c(=O)c23)ccc1C(=O)N1CCSCC1 [Example 2-29, tert-butyl 4-ethyl-4-(3-(3-ethyl-4-(thiomorpholine-4-carbonyl)phenylamino)-4-oxo-4,5-dihydropyrazolo[4,3-c]pyridin-1-yl) piperidine-1-carboxylate] | 2.72 nM | 1.79 nM | –
CCC1(n2nc(Nc3ccc4c(c3)CN(C3CCN(C)CC3)S4(=O)=O)c3c(=O)[nH]ccc32)CCN(C(=O)OC(C)(C)C)CC1 [Example 2-30, tert-butyl 4-ethyl-4-(3-((2-(1-methylpiperidin-4-yl)-1,1-dioxido-2,3-dihydrobenzo [d]isothiazol-5-yl)amino)-4-oxo-4,5-dihydro-1H-pyrazolo [4,3-c]pyridin-1-yl) piperidine-1-carboxylate] | 0.36 nM | 0.29 nM | –
CCC1(n2nc(Nc3ccc(C(C)(O)C(F)(F)F)cc3)c3c(=O)[nH]ccc32)CCN(C(=O)OC(C)(C)C)CC1 (stereo not drawn) [Example 2-42, tert-butyl 4-ethyl-4-(4-oxo-3-((4-(1,1,1-trifluoro-2-hydroxypropan-2-yl)phenyl)amino)-4,5-dihydro-1H-pyrazolo[4,3-c]pyridin-1-yl) piperidine-1-carboxylate] | 4.62 nM | 1.65 nM | –

Further lines, with some results ahead:

IC50 (JAK2) | IC50 (JAK1; [1]) | Compound | IC50 (JAK1)
0.6 nM | 0.72 nM | CCC1(n2nc(Nc3ccc(C(=O)N4CCO[C@H](C)C4)c(C)c3)c3c(=O)[nH]ccc32)CCN(C(=O)OC(C)(C)C)CC1 [Example 2-7, (R)-tert-butyl-4-ethyl-4-(3-(3-methyl-4-(2-methylmorpholine-4-carbonyl)phenylamino)-4-oxo-4,5-dihydropyrazolo[4,3-c]pyridin-1-yl) piperidine-1-carboxylate] | –
0.74 nM | 0.56 nM | CCC1(n2nc(Nc3ccc(C(=O)N4CCOCC4)c(F)c3)c3c(=O)[nH]ccc32)CCN(C(=O)OC(C)(C)C)CC1 [Example 2-12, tert-butyl 4-ethyl-4-(3-((3-fluoro-4-(morpholine-4-carbonyl)phenyl)amino)-4-oxo-4,5-dihydro-1H-pyrazolo[4,3-c]pyridin-1-yl) piperidine-1-carboxylate] | –
0.93 nM | 0.84 nM | CCC1(n2nc(Nc3ccc(C(=O)N4CCSCC4)c(C)c3)c3c(=O)[nH]ccc32)CCN(C(=O)OC(C)(C)C)CC1 [Example 2-21, tert-butyl 4-ethyl-4-(3-(3-methyl-4-(thiomorpholine-4-carbonyl)phenylamino)-4-oxo-4,5-dihydropyrazolo[4,3-c]pyridin-1-yl) piperidine-1-carboxylate] | –
1.92 nM | 1.13 nM | CCC1(n2nc(Nc3ccc(C4CCNCC4)cc3)c3c(=O)[nH]ccc32)CCN(C(=O)OC(C)(C)C)CC1 [Example 2-23, tert-butyl 4-ethyl-4-(4-oxo-3-(4-(piperidin-4-yl)phenylamino)-4,5-dihydropyrazolo[4,3-c]pyridin-1-yl) piperidine-1-carboxylate] | –
1.44 nM | 1.19 nM | CCC1(n2nc(Nc3ccc(C(=O)N4CCC(F)(F)CC4)c(C)c3)c3c(=O)[nH]ccc32)CCN(C(=O)OC(C)(C)C)CC1 [Example 2-26, tert-butyl 4-(3-(4-(4,4-difluoropiperidine-1-carbonyl)-3-methylphenylamino)-4-oxo-4,5-dihydropyrazolo [4,3-c]pyridin-1-yl)-4-ethylpiperidine-1-carboxylate] | –
0.51 nM | 0.54 nM | CCC1(n2nc(Nc3ccc(C(=O)N4CCOC[C@H]4C)c(C)c3)c3c(=O)[nH]ccc32)CCN(C(=O)OC(C)(C)C)CC1 [Example 2-28, (R)-tert-butyl-4-ethyl-4-(3-(3-methyl-4-(3-methylmorpholine-4-carbonyl)phenylamino)-4-oxo-4,5-dihydropyrazolo[4,3-c]pyridin-1-yl) piperidine-1-carboxylate] | –
1.06 nM | 0.73 nM | CCC1(n2nc(Nc3ccc(C(=O)N4CCCC4)c(C)c3)c3c(=O)[nH]ccc32)CCN(C(=O)OC(C)(C)C)CC1 [Example 2-33, tert-butyl 4-ethyl-4-(3-(3-methyl-4-(pyrrolidine-1-carbonyl)phenylamino)-4-oxo-4,5-dihydropyrazolo[4,3-c]pyridin-1-yl) piperidine-1-carboxylate] | –
5.24 nM | 0.38 nM | CCC1(n2nc(Nc3ccnc(F)c3)c3c(=O)[nH]ccc32)CCN(C(=O)OC(C)(C)C)CC1 [Example 2-40, tert-butyl 4-ethyl-4-(3-(2-fluoropyridin-4-ylamino)-4-oxo-4,5-dihydropyrazolo[4,3-c]pyridin-1-yl) piperidine-1-carboxylate] | –
6.87 nM | 4.4 nM | CCC1(n2nc(Nc3ccc(C(C)(OC)C(F)(F)F)cc3)c3c(=O)[nH]ccc32)CCN(C(=O)OC(C)(C)C)CC1 (stereo not drawn) [Example 2-41] | –
